Here are results for three compounds from ChEMBL document CHEMBL4431347, “Synthesis and biological evaluation of novel (E)-N'-(2,3-dihydro-1H-inden-1-ylidene) benzohydrazides as potent LSD1 inhibitors” (Bioorg Med Chem Lett, 2016).

Assay [1] has as its system A549. Kind of assay: Antiproliferative activity against human A549 cells over-expressing LSD1 assessed as reduction in cell viability measured after 72 hrs by MTT assay. The following applies: A549, 72 h.
Assay [2] has as its system NCI-H1299. Put plainly: Antiproliferative activity against human NCI-H1299 cells over-expressing LSD1 assessed as reduction in cell viability measured after 72 hrs by MTT assay. Conditions: NCI-H1299, 72 h.
Assay [3] concerns SMMC-7721. Put plainly: Antiproliferative activity against human SMMC7721 over-expressing LSD1 cells assessed as reduction in cell viability measured after 72 hrs by MTT assay. Conditions: SMMC-7721, 72 h.
The test system of assay [4] is A2780. Put plainly: Antiproliferative activity against human A2780 cells over-expressing LSD1 assessed as reduction in cell viability measured after 72 hrs by MTT assay. Conditions: A2780, 72 h.
In assay [5] the test system is HCT-116. Kind of assay: Antiproliferative activity against human HCT116 cells over-expressing LSD1 assessed as reduction in cell viability measured after 72 hrs by MTT assay. Conditions: HCT-116, 72 h.
Assay [6] relates to MCF7. Kind of assay: Antiproliferative activity against human MCF7 cells over-expressing LSD1 assessed as reduction in cell viability measured after 72 hrs by MTT assay. Conditions: MCF7, 72 h.
In assay [7] the test system is MDA-MB-231. Put plainly: Antiproliferative activity against human MDA-MB-231 cells over-expressing LSD1 assessed as reduction in cell viability measured after 72 hrs by MTT assay. Conditions: MDA-MB-231, 72 h.
Assay [8] has as its system PC-3. Put plainly: Antiproliferative activity against human PC3 cells over-expressing LSD1 assessed as reduction in cell viability measured after 72 hrs by MTT assay. The following applies: PC-3, 72 h.
The subject of assay [9] is DU-145. Kind of assay: Antiproliferative activity against human DU145 cells over-expressing LSD1 assessed as reduction in cell viability measured after 72 hrs by MTT assay. The following applies: DU-145, 72 h.
Assay [10] relates to A549. Kind of assay: Antiproliferative activity against human A549 cells over-expressing LSD1 assessed as reduction in cell viability measured after 96 hrs by MTT assay. Conditions: A549, 96 h.
The test system of assay [11] is NCI-H1299. Kind of assay: Antiproliferative activity against human NCI-H1299 cells over-expressing LSD1 assessed as reduction in cell viability measured after 96 hrs by MTT assay. Conditions: NCI-H1299, 96 h.
Assay [12] concerns SMMC-7721. Put plainly: Antiproliferative activity against human SMMC7721 cells over-expressing LSD1 assessed as reduction in cell viability measured after 96 hrs by MTT assay. The following applies: SMMC-7721, 96 h.
Assay [13] relates to A2780. Put plainly: Antiproliferative activity against human A2780 cells over-expressing LSD1 assessed as reduction in cell viability measured after 96 hrs by MTT assay. Conditions: A2780, 96 h.
The subject of assay [14] is HCT-116. Kind of assay: Antiproliferative activity against human HCT116 cells over-expressing LSD1 assessed as reduction in cell viability measured after 96 hrs by MTT assay. The following applies: HCT-116, 96 h.
Assay [15] deals with MCF7. Put plainly: Antiproliferative activity against human MCF7 cells over-expressing LSD1 assessed as reduction in cell viability measured after 96 hrs by MTT assay. Conditions: MCF7, 96 h.
Assay [16] has as its system MDA-MB-231. Put plainly: Antiproliferative activity against human MDA-MB-231 cells over-expressing LSD1 assessed as reduction in cell viability measured after 96 hrs by MTT assay. The following applies: MDA-MB-231, 96 h.
Assay [17] relates to PC-3. Put plainly: Antiproliferative activity against human PC3 cells over-expressing LSD1 assessed as reduction in cell viability measured after 96 hrs by MTT assay. The following applies: PC-3, 96 h.
Assay [18] relates to DU-145. Kind of assay: Antiproliferative activity against human DU145 cells over-expressing LSD1 assessed as reduction in cell viability measured after 96 hrs by MTT assay. Conditions: DU-145, 96 h.

Turning to `O=C(N/N=C1\CCc2c(Cl)ccc(O)c21)c1cccc(S(=O)(=O)N2CCOCC2)c1`, the IC50 in the assay on A549 [1] was determined as 780 nM; in the assay on NCI-H1299 [2], 3.33 µM; with SMMC-7721 [3] it was 3.16 µM; with A2780 [4], 1130 nM; with HCT-116 [5], 480 nM; in the assay with MCF7 [6], 410 nM. Besides, the IC50 was found to be 710 nM with MDA-MB-231 [7]; 2.45 µM in the assay with PC-3 [8]; 2950 nM in the assay on DU-145 [9]; 400 nM in the assay on A549 [10]; 980 nM in the assay with NCI-H1299 [11]; 1220 nM with SMMC-7721 [12]. Also, the IC50 in the assay with A2780 [13] was determined as 790 nM; in the assay on HCT-116 [14], 270 nM; in the assay on MCF7 [15] it was 300 nM; in the assay on MDA-MB-231 [16] it was 460 nM; with PC-3 [17], 760 nM; in the assay with DU-145 [18], 180 nM.
Regarding `O=C(N/N=C1\CCc2cccc(O)c21)c1cccc(S(=O)(=O)N2CCOCC2)c1`, the IC50 in the assay with A549 [1] turned out to be 920 nM; in the assay on NCI-H1299 [2] it was 2.01 µM; in the assay with SMMC-7721 [3], 2.96 µM; in the assay with A2780 [4], 810 nM; in the assay on HCT-116 [5] it was 360 nM; in the assay with MCF7 [6], 300 nM. In addition, the IC50 with MDA-MB-231 [7] came to 680 nM; in the assay with PC-3 [8] it was 3.11 µM; in the assay on DU-145 [9], 2490 nM; in the assay on A549 [10], 390 nM; in the assay with NCI-H1299 [11] it was 790 nM; in the assay with SMMC-7721 [12], 1340 nM. Further, the IC50 in the assay on A2780 [13] came to 340 nM; with HCT-116 [14] it was 250 nM; in the assay with MCF7 [15], 220 nM; in the assay on MDA-MB-231 [16] it was 410 nM; in the assay with PC-3 [17] it was 1000 nM; in the assay with DU-145 [18] it was 220 nM.
Regarding `C/C(=N\NC(=O)c1cccc(S(=O)(=O)N2CCOCC2)c1)c1cc(Cl)ccc1O`, the IC50 was 2690 nM in the assay on A549 [1]; 3.01 µM in the assay on NCI-H1299 [2]; 15.8 µM in the assay on SMMC-7721 [3]; 2140 nM in the assay with A2780 [4]; 650 nM in the assay on HCT-116 [5]; 440 nM in the assay with MCF7 [6]. Also, the IC50 in the assay on MDA-MB-231 [7] stood at 1400 nM; in the assay with PC-3 [8], 19.7 µM; in the assay on DU-145 [9] it was 13100 nM; in the assay with A549 [10], 830 nM; in the assay with NCI-H1299 [11] it was 1730 nM; in the assay on SMMC-7721 [12] it was 5360 nM. Besides, the IC50 in the assay on A2780 [13] turned out to be 770 nM; with HCT-116 [14], 330 nM; in the assay with MCF7 [15], 190 nM; in the assay with MDA-MB-231 [16] it was 750 nM; in the assay on PC-3 [17], 4450 nM; in the assay with DU-145 [18] it was 620 nM.
